Test results as given in patent US8455448B2, “Myostatin isoform” (Myostin Therapeutics Pty Ltd, priority 2004, dated 2013).
Where no end group is shown, it is not given here.

Key:
[1] = system: human skeletal muscle myoblasts; experiment: Proliferation assay of human primary myoblasts (methylene blue); type: cell-based
Experimental: (§1) Human skeletal muscle myoblasts (Cambrex, Australia) were seeded in 96-well tissue culture plates (Nunc, Roskilde, Denmark) at a cell density of 2000 cells per well in 200 μl of Skeletal Muscle Basal Medium (Cambrex, Australia) supplemented with foetal bovine serum (FBS, 10% v/v, Cambrex, Australia), and incubated overnight at 37° C. with 5% CO2. The medium was replaced with Dulbecco's modified Eagle's medium (DMEM, Invitrogen, California) supplemented with 5% foetal bovine serum (FBS, Invitrogen, California), penicillin (1×10^5 IU/l, Sigma, St Louis, Mo., USA) and streptomycin (100 mg/l, Sigma) buffered with NaHCO3 containing phenol red (7.22 nmol/l) as a pH indicator with 0, 0.1, 1, 5 and 10 μg/ml rhMSV38 or roMSV47 protein in a semi-random arrangement of eight replicates (n=8) for each test medium. Plates were incubated at 37° C. with 5% CO2 for 96 hours, and then the medium was removed. The wells were washed with 200 μl of phosphate buffered saline (PBS, Oxoid, UK) buffer and fixed with 100 μl of 10% formaldehyde, 0.9% NaCl solution for at least one hour. The fixative was then removed and 100 μl of 1% methylene blue stain in 0.01 M borate buffer (pH 8.5) was added to each well and incubated for 30 min at room temperature. Excess stain was removed by four sequential washes in borate buffer. Methylene blue was eluted from the cells by the addition of 100 μl 1:1 (v/v) ethanol/0.1 HCl. The plates were gently shaken and the absorbance was measured at 655 nm using a microplate photometer (VersaMax, Molecular Devices, CA).
Human skeletal muscle myoblasts (Cambrex, Australia) were seeded in 96-well tissue culture plates (Nunc, Roskilde, Denmark) at a cell density of 2000 cells per well in 200 μl of Skeletal Muscle Basal Medium (Cambrex, Australia) supplemented with foetal bovine serum (FBS, 10% v/v, Cambrex, Australia), and incubated overnight at 37° C. with 5% CO2. The medium was replaced with Dulbecco's modified Eagle's medium (DMEM, Invitrogen, California) supplemented with 5% foetal bovine serum (FBS, Invitrogen, California), penicillin (1×10^5 IU/l, Sigma, St Louis, Mo., USA) and streptomycin (100 mg/l, Sigma) buffered with NaHCO3 containing phenol red (7.22 nmol/l) as a pH indicator with no added protein, 1.5 or 3.0 μg/ml recombinant bovine mature myostatin alone and with combination of 0.3, 1, 3, 10 molar ratio of rhMSV38 to myostatin, and the same amounts of rhMSV38 without myostatin in a semi-random arrangement of eight replicates (n=8) for each test medium. Plates were incubated at 37° C. with 5% CO2 for 48 hours, and then the medium was removed. […] The plates were gently shaken and the absorbance was measured at 655 nm using a microplate photometer (VersaMax, Molecular Devices, CA).

murine C2C12 myoblasts = experiment: Proliferation assay of C2C12 murine myoblasts (methylene blue, absorbance 655 nm); type: cell-based
Experimental: (§2) Myoblasts were seeded in 96-well tissue culture plates (Nunc, Roskilde, Denmark) at a cell density of 1000 cells per well in 200 μl of Dulbecco's modified Eagle's medium (DMEM, Invitrogen, California) supplemented with foetal bovine serum (FBS, 10% v/v, Invitrogen), penicillin (1×10^5 IU/l, Sigma, St Louis, Mo., USA) and streptomycin (100 mg/l, Sigma) buffered with NaHCO3 containing phenol red (7.22 nmol/l) as a pH indicator, and incubated overnight at 37° C. with 5% CO2. Medium was replaced with DMEM 10% FBS test medium containing 0, 0.001, 0.003, 0.01, 0.03, 0.1, 0.3, 1, 3 or 10 μg/ml oMSV65 in a semi-random arrangement of eight replicates (n=8) for each test medium. Plates were incubated at 37° C. with 5% CO2 for 72 hours, and then the medium was removed. The wells were washed with 200 μl of phosphate buffered saline (PBS, Oxoid, UK) and fixed with 100 μl of 10% formaldehyde, 0.9% NaCl solution for at least one hour. The fixative was then removed and 100 μl of 1% methylene blue stain in 0.01 M borate buffer (pH 8.5) was added to each well and incubated for 30 min at room temperature. Excess stain was removed by four sequential washes in borate buffer. Methylene blue was eluted from the cells by the addition of 100 μl 1:1 (v/v) ethanol/0.1 HCl. The plates were gently shaken and the absorbance was measured at 655 nm using a microplate photometer (FIGS. 3a and 3b).
as §2, with “0,” for “0, 0.001, 0.003,”, “0.01,” for “0.01, 0.03,”, “1” for “0.3, 1, 3”, “oMSV47” for “oMSV65”, “60” for “72”, “(FIG. 9).” for “(FIGS. 3a and 3b).”
Myoblasts were seeded in 96-well tissue culture plates (Nunc, Roskilde, Denmark) at a cell density of 1000 cells per well in […] of Dulbecco's modified Eagle's medium (DMEM, Invitrogen, California) supplemented with foetal bovine serum (FBS, 10% v/v, Invitrogen), penicillin (1×10^5 IU/l, Sigma, St Louis, Mo., USA) and streptomycin (100 mg/l, Sigma) buffered with NaHCO3 containing phenol red (7.22 nmol/l) as a pH indicator, and incubated overnight at 37° C. with 5% CO2. Medium was replaced with DMEM 2.5% FBS test medium containing 0, 0.01, 0.1, 1, 5 or 10 μg/ml of the respective peptides in a semi-random arrangement of eight replicates (n=8) for each test medium. Plates were incubated at 37° C. with 5% CO2 for 80 hours, and then the medium was removed. The wells were washed with 200 μl of phosphate buffered saline (PBS, Oxoid, UK) and fixed with 100 μl of 10% formaldehyde, 0.9% NaCl solution for at least one hour. The fixative was then removed and 100 μl of 1% methylene blue stain in 0.01 M borate buffer (pH 8.5) was added to each well and incubated for 30 min at room temperature. Excess stain was removed by four sequential washes in borate buffer. Methylene blue was eluted from the cells by the addition of 100 μl 1:1 (v/v) ethanol/0.1 HCl. […]

myostatin = biological target: T1, myostatin (Bos taurus, UniProt O18836); experiment: rhMSV38/mature myostatin competition in human primary myoblast proliferation assay; type: cell-based, bovine; conditions: FIG. 13
T1 sequence (O18836 267-375): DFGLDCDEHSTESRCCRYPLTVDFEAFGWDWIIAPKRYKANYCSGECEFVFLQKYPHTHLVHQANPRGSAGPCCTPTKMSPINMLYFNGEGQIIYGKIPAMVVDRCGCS
Experimental: as §1, with “with no added protein, 1.5 or 3.0 μg/ml recombinant bovine mature myostatin alone and with combination of 0.3,” for “with 0, 0.1,”, “1, 3, 10 molar ratio of rhMSV38 to myostatin,” for “1, 5”, “and the same amounts of” for “and 10 μg/ml”, “rhMSV38 without myostatin” for “rhMSV38 or roMSV47 protein”, “for 48” for “for 96”

Substance: myostatin: recombinant bovine mature myostatin, negative regulator of muscle growth [reference compound]
- proliferation of human myoblasts under myostatin ([1]; 1.5 or 3 μg/ml Mstn, 48 h, FIG. 13): inhibitory effect
- myoblast proliferation under myostatin (murine C2C12 myoblasts; 1.5 μg/ml myostatin, C2C12, FIG. 9): inhibited myoblast proliferation

Substance: rhMSV38: recombinant human MSV38 expressed in E. coli (VHFPTPPNEEWIFFNVRRIIFLEVGFQFCSILGETALS; not fully specified)
- overcoming the inhibitory effect of myostatin on proliferation of human myoblasts (myostatin; 1.5 μg/ml Mstn, 48 h): able to overcome the inhibitory effect of myostatin
- antagonism of myostatin, proliferation relative to controls (myostatin; 1:10 molar ratio of myostatin to rhMSV38, 48 h): increases proliferation beyond that of controls
- molar ratio rhMSV38:myostatin at which restoration was achieved (myostatin; double the concentration of myostatin (3 μg/ml Mstn), 48 h): 1 × molar ratio
- proliferation of human myoblasts ([1]; 0-10 μg/ml, 96 h, FIG. 12B): stimulate myoblast proliferation
- proliferation of human primary myoblasts ([1]; rhMSV38 without myostatin, 48 h, FIG. 13): stimulate proliferation of human primary myoblasts in a dose dependent manner
- proliferation of murine C2C12 myoblasts (murine C2C12 myoblasts; 0-10 μg/ml, DMEM 2.5% FBS, 80 h, FIG. 12A and FIG. 17): stimulate myoblast proliferation
